# Experimental data from PubChem BioAssay AID686966 (The Scripps Research Institute Molecular Screening Center, 2013).
# pIC50: −log10 of the molar value. Calls of active or inactive are those of the source. No rule for the calls is given here.
# Molecular target: Tyrosine-protein kinase ABL1 (Homo sapiens) + Ras and Rab interactor 1 (Homo sapiens) (UniProt P00519+Q13671)
# Assay: Rin1/ABL1 binding disruption, potency – biochemical, TR-FRET, round 2, late-stage follow-up (AID 686966)
# Settings: TR-FRET Rin1-Abl binding
# Chain of Tyrosine-protein kinase ABL1 (Homo sapiens) + Ras and Rab interactor 1 (Homo sapiens) (P00519 whole entry, looked up): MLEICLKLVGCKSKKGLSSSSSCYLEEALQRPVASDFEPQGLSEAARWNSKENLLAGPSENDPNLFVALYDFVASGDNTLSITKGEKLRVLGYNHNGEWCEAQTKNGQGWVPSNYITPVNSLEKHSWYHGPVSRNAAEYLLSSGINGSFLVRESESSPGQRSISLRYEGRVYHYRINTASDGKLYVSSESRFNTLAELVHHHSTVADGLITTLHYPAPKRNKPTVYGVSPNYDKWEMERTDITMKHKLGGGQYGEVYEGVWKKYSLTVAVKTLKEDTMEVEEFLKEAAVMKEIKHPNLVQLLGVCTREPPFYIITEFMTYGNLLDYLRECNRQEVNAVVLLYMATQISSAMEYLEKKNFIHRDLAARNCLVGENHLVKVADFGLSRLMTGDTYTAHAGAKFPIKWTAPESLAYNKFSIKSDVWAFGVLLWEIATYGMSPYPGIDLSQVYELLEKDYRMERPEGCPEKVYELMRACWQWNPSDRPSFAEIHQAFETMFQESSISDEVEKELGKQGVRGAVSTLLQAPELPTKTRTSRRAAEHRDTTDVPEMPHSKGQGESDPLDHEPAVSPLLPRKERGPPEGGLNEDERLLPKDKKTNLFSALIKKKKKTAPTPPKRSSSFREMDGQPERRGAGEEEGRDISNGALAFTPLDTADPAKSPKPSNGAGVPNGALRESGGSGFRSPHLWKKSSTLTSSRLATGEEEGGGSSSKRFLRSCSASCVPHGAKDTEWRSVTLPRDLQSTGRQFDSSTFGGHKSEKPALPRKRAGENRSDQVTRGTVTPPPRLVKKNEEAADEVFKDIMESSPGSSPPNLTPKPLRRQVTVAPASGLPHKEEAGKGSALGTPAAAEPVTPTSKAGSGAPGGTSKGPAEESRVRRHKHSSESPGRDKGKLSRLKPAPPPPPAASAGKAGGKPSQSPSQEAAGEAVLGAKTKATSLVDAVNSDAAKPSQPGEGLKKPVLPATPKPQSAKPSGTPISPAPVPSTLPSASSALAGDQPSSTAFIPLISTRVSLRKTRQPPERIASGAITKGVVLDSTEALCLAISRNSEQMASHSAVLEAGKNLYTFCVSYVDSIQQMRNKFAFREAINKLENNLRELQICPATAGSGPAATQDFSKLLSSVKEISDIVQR
# Chain of Tyrosine-protein kinase ABL1 (Homo sapiens) + Ras and Rab interactor 1 (Homo sapiens) (Q13671 whole entry, looked up): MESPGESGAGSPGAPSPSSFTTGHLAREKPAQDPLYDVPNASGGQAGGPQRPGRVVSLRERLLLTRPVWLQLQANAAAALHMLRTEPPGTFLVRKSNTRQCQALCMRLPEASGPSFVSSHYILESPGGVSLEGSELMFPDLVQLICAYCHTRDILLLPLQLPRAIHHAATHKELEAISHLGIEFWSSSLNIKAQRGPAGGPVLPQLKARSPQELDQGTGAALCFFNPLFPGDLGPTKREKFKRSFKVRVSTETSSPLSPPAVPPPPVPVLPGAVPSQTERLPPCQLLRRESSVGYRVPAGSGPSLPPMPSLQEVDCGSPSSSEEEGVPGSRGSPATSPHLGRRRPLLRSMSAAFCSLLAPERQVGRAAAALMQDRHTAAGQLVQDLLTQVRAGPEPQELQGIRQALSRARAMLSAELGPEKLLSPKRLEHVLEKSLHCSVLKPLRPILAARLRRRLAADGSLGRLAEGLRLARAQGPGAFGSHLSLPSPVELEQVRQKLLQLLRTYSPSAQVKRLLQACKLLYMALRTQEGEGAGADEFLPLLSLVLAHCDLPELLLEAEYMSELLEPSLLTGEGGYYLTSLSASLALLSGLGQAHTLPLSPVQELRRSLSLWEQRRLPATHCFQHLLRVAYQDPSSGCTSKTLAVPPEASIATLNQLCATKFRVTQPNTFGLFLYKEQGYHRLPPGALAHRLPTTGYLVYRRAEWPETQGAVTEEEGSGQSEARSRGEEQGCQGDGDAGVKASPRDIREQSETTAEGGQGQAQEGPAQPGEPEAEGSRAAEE
Structure (SMILES),pIC50,IC50
O=c1cc(OCc2ccc(F)cc2)cc[nH]1,7.71,
COc1cc(OCc2ccccc2)ccn1,,> 73500 nM (inactive)
O=c1cc(OCc2ccccc2)cc[nH]1,7.64,
COc1ccc(COc2ccn(C)c(=O)c2)cc1,,> 73500 nM (inactive)
COc1cc(OCc2ccc(F)cc2)ccn1,,inactive
Nc1cc(OCc2ccccc2)ccn1,,> 73500 nM (inactive)
Cn1ccc(OCc2ccc(F)cc2)cc1=O,,inactive
COc1ccc(COc2cc[nH]c(=O)c2)cc1,7.40,
Cn1ccc(OCc2ccccc2)cc1=O,,> 73500 nM (inactive)
COc1ccc(COc2ccnc(OC)c2)cc1,,> 73500 nM (inactive)
